“Also recorded” adds a separate entry of the source. Residues, ends and D or L forms follow the SMILES beside them. *: point of attachment. Cbz = O=C(OCc1ccccc1)*
Assays:
PKCθ-A/E-induced NF-κB = assay: NF-κB-Luc reporter induced by constitutively active PKCθ-A/E in Jurkat cells; type: cell-based, human; conditions: cultured 16 hr, MG132 0, 5, 10, 20 μM (FIG. 5a)
Experimental: (§1) Jurkat cells were transfected with an empty vector (−) or constitutively active PKCθ (10 μg) together with NF-κB-Luc (FIG. 5a) CD28RE/AP-1-Luc (FIG. 5b), or AP-1-Luc (FIG. 5c) reporter constructs (5 μg each). The cells were cultured for 16 hr with the indicated concentrations of the […] MG132 (0, 5, 10, 20 μM), lysed, and luciferase activity was quantified. FIG. 5d: Jurkat cells were transfected with wild type IKKα (5 μg) or IKKβ (2 μg) together with an empty vector (0) or increasing amounts of constitutively active PKCθ. Twenty-four hr later, the cells were stimulated with anti-CD3/CD28 antibodies or with TNFα. Immunoprecipitated IKKα or IKKβ were subjected to an in vitro kinase assay. Phosphorylated GST-IκBα/1-62 was detected by autoradiography (top panels). […] After 24 hr, cells were lysed and normalized luciferase activity was determined. FIG. 5f: The expression level of the transfected IKKs or PKCθ was assessed by Western blotting using c-Myc-(IKKα), Flag-(IKKβ), or PKCθ-specific antibodies.
(§2) Cell Culture, Transfection, and Reporter Assays. […] Transfected Jurkat cells were harvested after 24 hr, washed twice with PBS, lysed, and luciferase or β-galactosidase activities were determined. The results were expressed as arbitrary luciferase units normalized to β-galactosidase activity in the same cells. […]

[1] = tested on: PKCθ-A/E-induced CD28RE/AP-1; assay: CD28RE/AP-1-Luc reporter induced by constitutively active PKCθ-A/E in Jurkat cells; type: cell-based, human; conditions: cultured 16 hr, MG132 0, 5, 10, 20 μM (FIG. 5b)
Experimental: as §1, §2

[2] = tested on: NF-κB RelA (p65) nuclear translocation; assay: Nuclear translocation of RelA (p65) after anti-CD3/CD28 stimulation, Western blot of nuclear/cytoplasmic extracts; type: cell-based, human; conditions: Jurkat cells preincubated 15 min at 37° C., anti-CD3/CD28 stimulation (FIG. 4b)
Experimental: (§3) FIG. 4a: Jurkat T cells were cotransfected with CD28RE/AP-1-Luc (10 μg) and β-galactosidase plasmid (2 μg) reporters. Twenty hr later, cells were stimulated for 10 min with CD3- plus CD28-specific antibodies, in the presence or absence of rottlerin (Rott; 30 μM) or Gö6976 (Gö; 0.5 μM). Luciferase activity in cell lysates was determined. FIG. 4b Jurkat cells were incubated (15 min at 37° C.) in the absence or presence of rottlerin or Gö6976, and then stimulated with anti-CD3/CD28 antibodies or with TNFα (10 ng/ml) for the indicated times. Nuclear and cytoplasmic extracts were prepared, and protein from each fraction (5 μg) was analyzed by Western blotting with an anti-RelA antibody. FIG. 4c: Wild-type PKCθ-transfected Jurkat T cells were stimulated as in (a). Cell lysates were immunoprecipitated (IP) with normal rabbit serum (NRS) or with an anti-PKCθ antibody, and the in vitro enzymatic activity of PKCθ was measured in the presence or absence of rottlerin or Gö6976 (top panel). The membrane was immunoblotted with a PKCθ-specific antibody (bottom panel).
(§4) Subcellular Fractionation. To determine PKCθ redistribution, cells were fractionated into cytosolic or membrane fractions as described by Meller (1996) Mol. Cell. Biol. 16:5782-5791; and, SDS-PAGE-resolved proteins were immunoblotted with an HRP-conjugated anti-PKCθ monoclonal antibody (Transduction Laboratories). […]

PKCθ [3] = target: T1, PKCθ (Homo sapiens, UniProt Q04759); assay: In vitro kinase assay of immunoprecipitated PKCθ (MBP substrate); type: biochemical; parameters: expressed in transfected cells; host or cells: Jurkat (E6.1) human leukemic T cells; conditions: immunoprecipitated PKCθ from wild-type PKCθ-transfected Jurkat T cells, inhibitor added to kinase reaction (FIG. 4c)
Experimental: as §3
Kinase Assays. […] ATP incorporation was determined using a STORM 860™ PhosphorImager (Molecular Dynamics). […]

T cells = assay: Fas-mediated T cell apoptosis; type: cell-based
Excerpt: PKCθ mediates a selective T cell survival signal via phosphorylation of BAD, a Bcl-2 family member. PKC-activating phorbol esters protect various cell types, including T cells, from apoptosis induced by the interaction of Fas with its ligand. However, before the instant invention, the mechanism of this protective effect as well as the identity of the PKC isoform(s) involved in this process were poorly understood. Studies analyzed the role of PKCθ selectively expressed in T lymphocytes in protecting T cells from Fas-mediated apoptosis. […] These events preceded the onset of cell apoptosis. […] Thus, the invention provides methods for identifying inhibitors of PKCθ activity by determining the ability of a test agent to inhibit PKCθ selective protection of T cells from Fas-mediated apoptosis.

TNFα-induced NF-κB = assay: NF-κB activity induced by TNFα in Jurkat cells; type: cell-based, human; conditions: TNFα 10 ng/ml (FIG. 4b)
Experimental: as §3, §4

PKCθ [4] = target: T1, PKCθ; conditions: in vitro and in intact T cells; cited from earlier work
BAD (Ser-136, Ser-112) = assay: Phosphorylation of BAD induced by Fas or combined CD3/CD28 ligation; type: cell-based
Excerpt: Thus, the invention provides methods for identifying inhibitors of PKCθ activity by determining the ability of a test agent to inhibit BAD phosphorylation by PKCθ or a BAD activity.

[5] = tested on: CD28RE/AP-1 element of the IL-2 promoter; assay: CD28RE/AP-1-Luc reporter assay, anti-CD3/CD28-stimulated Jurkat T cells; type: cell-based; conditions: Homo sapiens, read-out: inhibition of anti-CD3/CD28-stimulated activity of CD28RE/AP-1
Experimental: as §3
Cell Culture, Transfection, and Reporter Assays. […] Transfected Jurkat cells were harvested after 24 hr, washed twice with PBS, lysed, and luciferase or β-galactosidase activities were determined. The results were expressed as arbitrary luciferase units normalized to β-galactosidase activity in the same cells.

T1 sequence (Q04759 whole entry): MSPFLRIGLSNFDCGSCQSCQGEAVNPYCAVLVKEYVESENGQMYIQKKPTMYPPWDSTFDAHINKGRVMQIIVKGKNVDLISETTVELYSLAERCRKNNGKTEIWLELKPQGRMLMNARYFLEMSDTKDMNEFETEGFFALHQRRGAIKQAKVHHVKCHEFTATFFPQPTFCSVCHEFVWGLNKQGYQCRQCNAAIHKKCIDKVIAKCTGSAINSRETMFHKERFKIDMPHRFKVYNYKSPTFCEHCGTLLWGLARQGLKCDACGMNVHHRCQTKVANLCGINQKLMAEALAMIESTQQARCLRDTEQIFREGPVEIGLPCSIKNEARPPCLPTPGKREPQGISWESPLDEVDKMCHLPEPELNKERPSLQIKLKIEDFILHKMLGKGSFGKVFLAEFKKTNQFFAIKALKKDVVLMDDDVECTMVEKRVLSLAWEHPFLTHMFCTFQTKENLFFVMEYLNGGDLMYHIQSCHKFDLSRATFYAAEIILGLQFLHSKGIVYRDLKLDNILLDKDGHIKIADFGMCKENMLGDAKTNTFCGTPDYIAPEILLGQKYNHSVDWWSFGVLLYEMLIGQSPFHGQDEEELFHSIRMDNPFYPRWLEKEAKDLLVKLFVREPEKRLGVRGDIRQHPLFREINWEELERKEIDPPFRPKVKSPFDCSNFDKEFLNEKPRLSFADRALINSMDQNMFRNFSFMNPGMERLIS

SMILES | PKCθ-A/E-induced activation of NF-κB (PKCθ-A/E-induced NF-κB) | PKCθ-A/E-induced activation of CD28RE/AP-1 [1] | receptor-stimulated nuclear translocation of RelA (p65) [2] | inhibition of CD3/CD28-induced PKCθ activity (PKCθ [3]) | synergy with an anti-Fas antibody to induce rapid T cell apoptosis (T cells) | inhibition of NF-κB activity induced by TNFα (TNFα-induced NF-κB) | inhibition of PKCθ function (PKCθ [4]) | phosphorylation of BAD on Ser-136 (and to a lesser extent on Ser-112) (BAD (Ser-136, Ser-112)) | inhibition at 30 µM [5] [%]
CC(C)C[C@@H](C=O)NC(=O)[C@H](CC(C)C)NC(=O)[C@H](CC(C)C)NC(=O)OCc1ccccc1 [MG132] (Cbz-Leu-Leu-Leu-aldehyde) | blocked in a dose-dependent manner | blocked in a dose-dependent manner; also recorded: inhibited | – | – | – | – | – | – | –
CC(=O)c1c(O)c(C)c(O)c(Cc2c(O)c3c(c(C(=O)/C=C/c4ccccc4)c2O)OC(C)(C)C=C3)c1O [rottlerin] | – | – | essentially blocked | considerably more effective than Gö6976 | synergized | did not inhibit | inhibits PKCθ function | selectively blocked | ~80

Source: patent publication US20020068271A1, “Methods for identifying agents capable of modulating protein kinase C theta (PKC0) activity” (priority 1999, published 2002)
